Data reported in patent US6399105B1, “Sea cucumber carotenoid lipid fraction products and methods of use” (priority 2000, dated 2002).

Key:
[1] = test system: adjuvant induced arthritis; assay: Adjuvant induced arthritis assay in rats; format: in vivo, rat; conditions: 10 mg/kg orally once per day for 7 days; for Mean Paw Wt.: 6 rats; for % Anti-inflammatory Response: (control - test)/test x 100
[2] = biological target: T1, 5-lipoxygenase (5-LO) (Homo sapiens, UniProt P09917); assay: 5-Lipoxygenase assay in human PMNs (LTB4, isomers, 5-HETE by HPLC); format: cell-based; conditions: human neutrophils
T1 construct: Human PMNs isolated by standard procedures from a normal volunteer were prewarmed to 37° C; endogenous in cells; host or cells: human polymorphonuclear leukocytes (neutrophils) from a normal volunteer
T1 sequence (P09917 1-674): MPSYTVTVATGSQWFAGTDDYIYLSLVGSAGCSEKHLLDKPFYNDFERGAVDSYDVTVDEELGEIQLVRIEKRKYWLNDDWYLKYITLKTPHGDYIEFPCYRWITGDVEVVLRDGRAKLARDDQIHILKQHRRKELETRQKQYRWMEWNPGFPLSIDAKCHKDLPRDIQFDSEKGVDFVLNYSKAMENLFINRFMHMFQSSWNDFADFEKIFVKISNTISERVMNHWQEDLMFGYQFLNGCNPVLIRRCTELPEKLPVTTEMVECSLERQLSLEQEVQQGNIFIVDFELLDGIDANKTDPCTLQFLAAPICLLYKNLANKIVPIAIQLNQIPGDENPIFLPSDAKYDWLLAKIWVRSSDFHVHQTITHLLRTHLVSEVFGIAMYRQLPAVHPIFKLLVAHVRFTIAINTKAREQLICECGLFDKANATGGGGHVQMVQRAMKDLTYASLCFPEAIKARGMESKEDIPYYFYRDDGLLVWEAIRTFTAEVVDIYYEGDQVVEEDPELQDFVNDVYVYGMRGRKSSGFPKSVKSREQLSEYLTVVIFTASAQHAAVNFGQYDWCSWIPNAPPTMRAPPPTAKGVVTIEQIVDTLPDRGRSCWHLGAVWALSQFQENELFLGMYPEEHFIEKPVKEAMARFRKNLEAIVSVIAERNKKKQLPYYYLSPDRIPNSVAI
Source text: 5-lipoxygenase (5-LO) is a key enzyme in the metabolism of arachidonic acid (AA) to leukotriene B4 (LTB4) and hydroxyeicosatetraenoic acid (5-HETE) it a wide variety of cells. including polymorphonuclear (PMN) leukocytes (Henderson, 1994) and has recently been linked to prostate and other cancers (Ghosh and Myers, 1997). LTB4 is a chemotaxic signaling agent involved in the migration of PMNs from the blood stream to sites of tissue injury, which is a hallmark of the inflammatory response. Human PMNs isolated by standard procedures from a normal volunteer were prewarmed to 37° C. and, at time=0, 10 μL of test compounds suspended in methanol by sonication, or methanol alone, were added to 1 mL of the PMN suspension. At t=10 min, […] of 2 mM AA were added to each suspension as the 5-LO substrate. At t=14 min, the calcium ionophore A23187 ([…], 1 mM) was added to activate the enzyme. The reaction was terminated at t=19 minutes by 100 μL of 100 mM citric acid, maintaining a pH of 3.0. Prostaglandin B2 and 15-HETE were added as internal standards for high pressure liquid chromatography (HPLC) quantification of LTB, and 5-HETE, respectively. Metabolites and standards were extracted from the suspension with chloroform/methanol (7:3). […] Metabolites were detected by ultraviolet light and quantified against standard curves. […]

[3] = biological target: T2, 12-lipoxygenase (Homo sapiens, UniProt P18054); assay: 12-HETE assay using human platelets; format: cell-based
T2 construct: assayed by the method similar to the assay for 5-lipoxygenase by using human platelets; endogenous in cells; host or cells: human platelets (mixed with polymorphonuclear leukocytes, challenged with A23187)
T2 sequence (P18054 1-663): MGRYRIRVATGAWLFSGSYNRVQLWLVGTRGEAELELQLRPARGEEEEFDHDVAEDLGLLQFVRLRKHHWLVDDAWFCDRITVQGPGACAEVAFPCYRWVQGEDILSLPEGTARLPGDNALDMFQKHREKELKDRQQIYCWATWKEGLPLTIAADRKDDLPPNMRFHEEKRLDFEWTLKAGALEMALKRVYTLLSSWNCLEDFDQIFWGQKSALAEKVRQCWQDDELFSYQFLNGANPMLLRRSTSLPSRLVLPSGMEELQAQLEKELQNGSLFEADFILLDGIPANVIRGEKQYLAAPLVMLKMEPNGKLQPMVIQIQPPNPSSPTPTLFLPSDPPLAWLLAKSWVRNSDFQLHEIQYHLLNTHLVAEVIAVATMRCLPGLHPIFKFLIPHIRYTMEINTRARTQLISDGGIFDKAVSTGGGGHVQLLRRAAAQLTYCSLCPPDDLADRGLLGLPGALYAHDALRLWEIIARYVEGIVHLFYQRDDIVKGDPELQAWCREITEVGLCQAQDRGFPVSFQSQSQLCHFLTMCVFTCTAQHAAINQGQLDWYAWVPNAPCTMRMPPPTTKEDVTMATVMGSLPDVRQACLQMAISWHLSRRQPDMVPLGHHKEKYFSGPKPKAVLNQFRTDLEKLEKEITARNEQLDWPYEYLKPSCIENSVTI
Method: RED OIL and GOLD OIL were assayed by the method similar to the assay for 5-lipoxygenase by using human platelets. Polymorphonuclear leukocytes were mixed, challenged with A23187, and 12-HETE production was measured by high pressure liquid chromatography (HPLC). Addition of a 1:10,000 dilution of RED OIL to the reaction yielded 12-HETE levels that were 65% that of methanolic controls, while A 1:1000 dilution of GOLD OIL yielded levels that were 46% of controls.

[4] = test system: PC3, MCF7, HT29 or BRO cell lines; assay: Anti-cancer assays, MTT viable dye method, 72 hr; format: cell-based; conditions: human cancer cell lines
Method: RED OIL and GOLD OIL and various thin-layer chromatographic fractions have been tested against human cancer cell lines in vitro. Materials were initially dissolved in dimethyl sulfoxide and then diluted in tissue culture media. Aliquots of 23 μg/mL were then applied to PC3 (human prostate), MCF7 (human breast adenocarcinoma), HT29 (human colon adenocarcinoma) or BRO (human melanoma) cell lines. These fractions mediated inhibition of cell growth relative to untreated control cells as assessed after 72 hr by the MTT viable dye method as is commonly used by those skilled in the arts. […] One such fraction isolated from sea cucumber lipid phase by the method of Findlay et al. (1983b), plastochromanol-8, was considered to be promising in that values of 20-50 μg/mL were determined as IC50 values (that concentration inhibiting 50% of cell growth). […] Plastochromanol-8 was also shown to be inhibitory of the 12-Lipoxygenase pathway in human platelets.

[5] = test system: leukotriene synthesis in human neutrophils; assay: Leukotriene activation/synthesis assay in human neutrophils (method of Betts); format: cell-based
Source text: In a leukotriene activation assay showing the effect of plastochromanol-8 on leukotriene synthesis expressed as a percentage of a methanol control in human neutrophils, by the method of Betts (1997), plastochromanol-8 inhibited activation of 5-HETE by approximately 60 percent, LTB4 by approximately 40 percent, and two of the 6-trans isomers of LTB4 (6-trans-leukotriene B4 and 6-trans-12-epileukotriene B4), by 75%. In a related assay of the effect of plastochromanol-8 on leukotriene synthesis expressed as leukotriene synthesis per 10^6 PMN, plastochromanol-8 inhibited the production of 5-HETE by approximately 75%, LTB4 by 50%, and the two trans-6 isomers of LTB4 by approximately 80%. In similar assays with human platelets, plastochromanol-8 inhibited 12-HETE synthesis by approximately 80%.

[6] = leukotriene synthesis as percentage of methanol control
[7] = leukotriene synthesis per 10^6 PMN

Compound	Mean Paw Wt. [1]	% Anti-inflammatory Response [1]	inhibition of 5-lipoxygenase metabolite synthesis (LTB4, isomers, 5-HETE), in words [2]	inhibition of 12-HETE synthesis [3]	inhibition of 12-lipoxygenase pathway, in words [3]	IC50 (concentration inhibiting 50% of cell growth) [4]	inhibition of 5-HETE [5, 6]	inhibition of 6-trans-leukotriene B4 and 6-trans-12-epileukotriene B4 [5, 6]	inhibition of LTB4 [5, 6]	inhibition of production of 5-HETE [5, 7]	inhibition of production of LTB4 [5, 7]	inhibition of production of the two trans-6 isomers of LTB4 [5, 7]
C[C@]12CCC(=O)C=C1CC[C@@H]1[C@@H]2[C@@H](O)C[C@@]2(C)[C@H]1CC[C@]2(O)C(=O)CO [Hydrocortisone]	0.61 gm	59.0%										
CC(C)=CCC/C(C)=C/CC/C(C)=C/CC/C(C)=C/CC/C(C)=C/CC/C(C)=C/CC/C(C)=C/CC/C(C)=C/CC[C@]1(C)CCc2cc(O)c(C)c(C)c2O1 [plastochromanol-8]			dramatic inhibitor	approximately 80%	inhibitory	20 to 50 µg/mL	approximately 60%	75%	approximately 40%	approximately 75%	50%	approximately 80%
CCCCC1C(=O)N(c2ccccc2)N(c2ccccc2)C1=O [Phenylbutazone]	0.38 gm	155.3%										
